Patent US20220031636A1, “COMPOUNDS THAT ENHANCE THE ACTION OF METFORMIN” (SOCIETE DES PRODUiTS NESTLE S.A., priority 2018, published 2022)
“Also recorded” adds a separate entry of the source.

Tests used:
[1] = molecular target: T1, bacterially-expressed AMPKα2β1γ1 (Homo sapiens, UniProt P54619+P54646+Q9Y478); test: HTRF-KinEASE kinase assay of phosphorylated AMPK heterotrimer with AMP and fixed concentrations of Lusianthridin; assay type: biochemical
T1 construct: His; made in house
Procedure: The AMPK heterotrimers were expressed in bacteria and purified through the His-α subunit by nickel purification, further purified through gel filtration and finally phosphorylated by incubation with CaMKKβ. This phosphorylated AMPK was incubated with varying concentrations of AMP for 30 mins using substrate and reagents from the HTRF-KinEASE Cisbio assay kit (STK S1 Kit). Phosphorylation of the substrate was measured by incubating with donor and acceptor antibodies for 2 h at room temperature as per the manufacturer's protocol (and Coulerie et al., (2016), see below) and phosphorylated peptide detected by performing HTRF.

[2] = tested on: primary hepatocytes; test: Lipogenesis in primary hepatocytes ([1-14C]-acetate incorporation into fatty acids); assay type: cell-based; details: low/non-saturating concentration, 1 h at 37 C
Procedure: Hepatocyte isolation: The liver was first perfused with 50 ml perfusion buffer (Krebs-Hepes buffer with […] EDTA), followed with 50 ml collagenase A buffer (Krebs-Hepes buffer with 5 mM CaCl2) and 0.5 mg/ml collagenase). After passage through a 100 μm mesh, the cell solution was washed several times with cold media and finally the cell culture pellet was resuspended in culture medium (medium 199 (M199)+GlutaMAX, 100 U/ml penicillin G, and 100 μg/ml streptomycin, 0.1% (wt/vol) BSA, 10% FCS, 10 nM insulin, 200 nM triiodothyronine and 500 nM dexamethasone). Hepatocytes were left to attach (3-4 h) and cultured overnight in M199 supplemented with antibiotics and 100 nM dexamethasone. Cells were used for experiments the following morning.
For lipogenesis measurements in primary hepatocytes, cells were seeded at 600 K cells per well in a 6-well plate overnight. Media was replaced with fresh M199 media alone for 2 hours prior to incubation with varying concentrations of Lusianthridin or compound 1 for 1 h at 37 C, in the presence of [1-^14C]-acetate. The incorporation of [^14C] into fatty acids was determined in the lower organic layer after separation from the aqueous phase.
Lipogenesis is controlled by the AMPK substrate ACC, and phosphorylation and inhibition of ACC by AMPK, leads to a decrease in lipogenesis. Lipogenesis was measured in primary hepatocytes by determining the incorporation of ^14C-labelled acetate into fatty acids.
Lipogenesis was monitored in the presence or absence of a low/non-saturating concentration of Lusianthridin or metformin for 1 h at 37 C. Furthermore, cells were incubated in the presence of both of these compounds.

T1 sequence (P54646 whole entry): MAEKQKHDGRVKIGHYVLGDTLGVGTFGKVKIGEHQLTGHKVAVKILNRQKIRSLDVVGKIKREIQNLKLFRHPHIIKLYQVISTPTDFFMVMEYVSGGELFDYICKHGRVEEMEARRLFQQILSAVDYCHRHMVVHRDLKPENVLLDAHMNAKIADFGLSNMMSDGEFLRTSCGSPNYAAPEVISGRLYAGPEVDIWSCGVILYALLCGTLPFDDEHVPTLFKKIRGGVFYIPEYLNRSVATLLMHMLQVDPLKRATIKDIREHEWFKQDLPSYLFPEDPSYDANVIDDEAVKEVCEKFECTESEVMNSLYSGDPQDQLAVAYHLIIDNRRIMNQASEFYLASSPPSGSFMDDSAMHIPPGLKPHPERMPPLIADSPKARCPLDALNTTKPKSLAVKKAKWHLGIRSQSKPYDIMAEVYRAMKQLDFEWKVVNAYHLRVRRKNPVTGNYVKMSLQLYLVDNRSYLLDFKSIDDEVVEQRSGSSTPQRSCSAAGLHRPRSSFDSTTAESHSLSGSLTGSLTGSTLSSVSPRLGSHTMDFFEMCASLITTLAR
T1 sequence (Q9Y478 whole entry): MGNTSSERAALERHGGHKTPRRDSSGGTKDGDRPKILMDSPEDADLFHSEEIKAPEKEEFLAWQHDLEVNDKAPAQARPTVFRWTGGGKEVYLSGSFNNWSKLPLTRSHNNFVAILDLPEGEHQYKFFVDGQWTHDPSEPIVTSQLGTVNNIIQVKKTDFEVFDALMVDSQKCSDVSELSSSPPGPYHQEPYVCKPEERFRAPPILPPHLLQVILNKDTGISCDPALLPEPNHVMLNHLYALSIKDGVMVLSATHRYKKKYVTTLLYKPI
T1 sequence (P54619 whole entry): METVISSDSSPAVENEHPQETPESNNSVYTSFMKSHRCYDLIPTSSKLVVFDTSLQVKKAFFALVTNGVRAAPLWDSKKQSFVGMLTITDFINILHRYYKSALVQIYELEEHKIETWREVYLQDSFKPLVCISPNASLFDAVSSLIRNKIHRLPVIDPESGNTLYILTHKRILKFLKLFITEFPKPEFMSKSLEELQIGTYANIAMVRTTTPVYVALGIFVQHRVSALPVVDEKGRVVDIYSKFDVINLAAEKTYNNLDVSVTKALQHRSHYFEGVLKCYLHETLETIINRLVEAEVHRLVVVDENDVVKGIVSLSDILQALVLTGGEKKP

Row | SMILES | AMPK activity (HTRF 665 nm/620 nm ratio) ([1]; AMP alone, varying concentrations, 30 mins) | activation of AMPK in combination with AMP ([1]; fixed concentrations of Lusianthridin plus varying AMP) | inhibition of lipogenesis, compound alone (% lipogenesis compared to control untreated cells) [2] | inhibition of lipogenesis, compound alone (% lipogenesis compared to control untreated cells) ([2]; listed as metformin)
1 | Nc1ncnc2c1ncn2[C@@H]1O[C@H](COP(=O)(O)O)[C@@H](O)[C@H]1O [AMP, reference compound] | dose-dependent increase in AMPK activity |  |  | 
2 | COc1cc(O)c2c(c1)CCc1cc(O)ccc1-2 [Lusianthridin, 7-Methoxy-9,10-dihydrophenanthrene-2,5-diol] |  | additive activation of AMPK; also recorded: Additive Effect on AMP Activation | inhibition of lipogenesis; also recorded: able to inhibit lipogenesis | 
3 | CN(C)C(=N)N=C(N)N [Metformin] |  |  | inhibition of lipogenesis | able to inhibit lipogenesis
